{"source": "patent US7495008B2", "about": "“Spiro-piperidine derivatives” (Hoffmann-La Roche Inc., priority 2006, dated 2009)", "data": [{"target": "T1, human V1a receptor (Homo sapiens, UniProt P37288)", "T1 construct": "expressed in transfected cells; host or cells: HEK293 cells, transiently transfected; membranes prepared", "T1 sequence (P37288 whole entry)": "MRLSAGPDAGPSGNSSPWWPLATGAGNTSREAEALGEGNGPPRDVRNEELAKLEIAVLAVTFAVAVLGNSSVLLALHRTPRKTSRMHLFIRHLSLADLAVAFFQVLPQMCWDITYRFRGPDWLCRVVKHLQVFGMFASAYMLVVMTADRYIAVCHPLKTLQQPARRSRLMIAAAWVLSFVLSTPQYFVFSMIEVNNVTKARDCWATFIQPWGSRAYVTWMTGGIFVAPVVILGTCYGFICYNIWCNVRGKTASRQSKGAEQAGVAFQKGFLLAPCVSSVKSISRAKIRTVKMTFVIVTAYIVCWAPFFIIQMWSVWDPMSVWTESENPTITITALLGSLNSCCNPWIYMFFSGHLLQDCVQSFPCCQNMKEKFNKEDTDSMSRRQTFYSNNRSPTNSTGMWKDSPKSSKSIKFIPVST", "test": "V1a receptor binding study (3H-Vasopressin SPA, HEK293 membranes)", "details": "membranes of HEK293 cells transiently transfected with human V1a receptor, Ki by Cheng-Prussoff equation, read-out: pKi hV1a (converted)", "experimental": "The human V1a receptor was cloned by RT-PCR from total human liver RNA. The coding sequence was subcloned in an expression vector after sequencing to confirm the identity of the amplified sequence. […] Cell membranes were prepared from HEK293 cells transiently transfected with the expression vector and grown in 20 liter fermenters with the following protocol.\n50 g of cells were resuspended in 30 ml freshly prepared ice cold Lysis buffer (50 mM HEPES, 1 mM EDTA, 10 mM MgCl2 adjusted to pH=7.4+complete cocktail of protease inhibitor (Roche Diagnostics)); homogenized with Polytron for 1 min; and sonicated on ice for 2×2 minutes at 80% intensity (Vibracell sonicator). The preparation was centrifuged 20 min at 500 g at 4° C., the pellet was discarded and the supernatant centrifuged 1 hour at 43,000 g at 4° C. (19,000 rpm). The pellet was resuspended in 12.5 ml Lysis buffer+12.5 ml Sucrose 20% and homogenized using a Polytron for 1-2 min. The protein concentration was determined by the Bradford method and aliquots were stored at −80° C. until use. For binding studies 60 mg Yttrium silicate SPA beads (Amersham) were mixed with an aliquot of membrane in binding buffer (50 mM Tris, 120 mM NaCl, 5 mM KCl, 2 mM CaCl2, 10 mM MgCl2) for 15 minutes with mixing. 50 ul of bead/membrane mixture was then added to each well of a 96 well plate, followed by 50 ul of 4 nM 3H-Vasopressin (American Radiolabeled Chemicals). For total binding measurement 100 ul of binding buffer were added to the respective wells, for non-specific binding 100 ul of 8.4 mM cold vasopressin and for compound testing 100 ul of a serial dilution of each compound in 2% DMSO. The plate was incubated 1 h at room temperature, centrifuged 1 min at 1000 g and counted on a Packard Top-Count. Non-specific binding counts were subtracted from each well and data was normalized to the maximum specific binding set at 100%. To calculate an IC 50 the curve was fitted using a non-linear regression model (XLfit), and the Ki was calculated using the Cheng-Prussoff equation.", "units": {"Ki": "nM"}, "values": [{"compound": "CC1=C(C(=O)N2CC[C@@]3(OC(=O)c4ccccc43)[C@@H](C)C2)Cc2ccccc21", "note": "(racemic) [Example 10, (1RS,3′SR)-3′-Methyl-1′-[(3-methyl-1H-inden-2-yl)carbonyl]-3H-spiro[2-benzofuran-1,4′-piperidin]-3-one]", "Ki": 63.1}, {"compound": "O=C(c1cc2ccccc2s1)N1CCC2(CC1)OCc1ccccc12", "note": "[Example 1, 1′-(1-Benzothien-2-ylcarbonyl)-3H-spiro[2-benzofuran-1,4′-piperidine]]", "Ki": 25.1}, {"compound": "COc1cccc2cc(C(=O)N3CCC4(CC3)OCc3ccccc34)sc12", "note": "[Example 2, 1′-[(7-Methoxy-1-benzothien-2-yl)carbonyl]-3H-spiro[2-benzofuran-1,4′-piperidine]]", "Ki": 50.1}, {"compound": "COc1ccc2c(c1)CC(C(=O)N1CCC3(CC1)OCc1ccccc13)S2", "note": "(stereo not shown) [Example 4, 1′-[(5-Methoxy-2,3-dihydro-1-benzothien-2-yl)carbonyl]-3H-spiro[2-benzofuran-1,4′-piperidine]]", "Ki": 63.1}, {"compound": "CCc1cc(Br)cc2cc(C(=O)N3CCC4(CC3)OCc3ccccc34)oc12", "note": "[Example 6, 1′-[(5-Bromo-7-ethyl-1-benzofuran-2-yl)carbonyl]-3H-spiro[2-benzofuran-1,4′-piperidine]]", "Ki": 50.1}, {"compound": "O=C(c1nc2cc(Cl)ccc2[nH]1)N1CCC2(CC1)OCc1ccccc12", "note": "[Example 9, 1′-[(5-Chloro-1H-benzimidazol-2-yl)carbonyl]-3H-spiro[2-benzofuran-1,4′-piperidine]]", "Ki": 31.6}, {"compound": "COc1ccc2c(c1)C1(CCN(C(=O)c3cc4cccnc4[nH]3)CC1)OC2=O", "note": "[Example 14, 6-Methoxy-1′-(1H-pyrrolo[2,3-b]pyridin-2-ylcarbonyl)-3H-spiro[2-benzofuran-1,4′-piperidin]-3-one]", "Ki": 200}]}]}
